US11577248B2, “Biological membrane-based sensor” (McMaster University, priority 2017, dated 2023)

How the values were obtained:
RBC membranes = assay: X-ray diffraction of RBC/aspirin complexes (multi-lamellar RBC membranes on silicon wafers); set-up: species or system human
From the text: X-ray scattering data was obtained using the Biological Large Angle Diffraction Experiment (BLADE) in the Laboratory for Membrane and Protein Dynamics at McMaster University. BLADE uses a 9 kW (45 kV, 200 mA) CuKα rotating anode at a wavelength of 1.5418 Å. Both source and detector are mounted on movable arms such that the membranes stay horizontal during the measurements. Focusing multi-layer optics provides a high intensity parallel beam with monochromatic X-ray intensities up to 10^10 counts/(mm^2·s). This beam geometry provides optimal illumination of the solid supported membrane samples to maximize the scattering signal. Note that there is no risk of sample damage using this in-house technique because of the large beam size and relatively low intensity of the X-ray beam as compared to synchrotron sources. The result of an X-ray experiment is a 2-dimensional intensity map of a large area of the reciprocal space, as sketched in FIG. 5. The corresponding real-space length scales are determined by d=2π/ ? and cover length scales from about 2.5 to 100 Å. All scans were measured at 28° C. and 50% relative humidity (RH) hydration. As depicted in FIG. 5a), the wafers were oriented in the X-ray diffractometer, such that the q∥-axis probed lateral structure, parallel to the wafer surface, and the perpendicular axis, qz, probed out-of-plane structure, perpendicular to the substrate. The out-of-plane structure of the membrane was determined using specular reflectivity. The relative electron density, ρ(z), is approximated by a 1-dimensional Fourier analysis. [formula] N is the highest order of the Bragg peaks observed in the experiment. The integrated peak intensities, I, are multiplied by q, to receive the form factors, F(q,). The bilayer form factor F(qz), which is in general a complex quantity, is real-valued in the case of centro-symmetry. The phase problem of crystallography, therefore, simplifies to the sign problem F(qz)=±|F(qz)| and the phases, ν, can only take the values±1. The phases, ν, are needed to reconstruct the electron density profile from the scattering data following Eq. (1). When the membrane form factor F(qz) is measured at several qz values, a continuous function, T(qz), which is proportional to F(qz), can be fitted to the data. Once an analytical expression for T(qz) has been determined from fitting the experimental peak intensities, the phases ν, can be assessed from T(qz). The phase array ν, =[−1−1 1−1 1] was used for all samples. The electron densities determined by Eq. (1) are on a relative scale. In order to compare the electron densities in FIGS. 6c) and 7c), ρ in the membrane centre at z=0 was set to 0 and the electron density at the boundaries (z values between 25 and 30 Å depending on the lamellar spacing), which probe the water layer between the stacked membranes, were scaled to the electron density of water of ρ=0.33 e^−/Å^3. In order to prepare complexes of RBC membranes containing increasing amounts of aspirin, a solution of 9 mg/mL acetylsalicylic acid (molecular weight 180 g/mol) in 18.2 MΩ·cm water was prepared. 2 μL, 3 μL, 4 μL, 5 μL, and 6 μL of this solution were added to 100 μL of the final ghosts solution resulting in acetylsalicylic acid concentrations of 1 mM, 1.5 mM, 2 mM, 2.5 mM and 3 mM. The resulting solutions were applied onto silicon wafers and dried slowly and incubated for 5 days following the above protocol. The in-plane peaks are the result of a hexagonal packing of the lipid tails in the hydrophobic membrane core (planar group p6). The distance between two acyl tails is determined to be α=4π/(√3q), where q∥ is the position of the corresponding correlation peak. The area per lipid chain is obtained to AT=(√3/2) α^2 Lipid tail distances in lo and ld domains and lipid tail areas are listed in Table 1. […]

[1] = test system: human red blood cell membranes; assay: HBLOC sensor: cyclic voltammetry with ferricyanide on RBC membrane-coated nanostructured gold electrodes; conditions: ferricyanide redox indicator, FIG. 10
From the text: Inventors have developed a method which isolates human red blood cells on a silicon chip for use as a safe and quantitative test for hemolytic bacteria. To develop our human blood cells on a chip, a sample of human blood is exposed to a hypotonic solution which causes the RBC's to burst and empty their contents. A series of sonication and washing steps are then applied to isolate only the RBC membrane, and to remove all hemoglobin and other contaminants. The result is a solution of empty membrane sacks known as RBC “ghosts”. This solution is then applied to sensors and allowed to slowly dry, leaving behind stacked sheets of RBC membrane. The sensors use nanostructured gold electrodes, functionalized for the application of the RBC membranes and maximizing the surface area for increased sensitivity of the tests. The coated electrodes are then used as part of a 3-electrode electrochemical cell, where any damage to the cell membrane allows a redox-indicator in solution to access the electrode surface. Under cyclic voltammetry or chronoamperometry measurements the reduction/oxidation of the indicator molecule gives rise to a current that is proportional to the amount of membrane damage. […] Membrane damage was quantitatively measured using ferricyanide as the redox indicator and cyclic voltammetry. […]

Question: What does the source list for `CC(=O)Oc1ccccc1C(=O)O` [aspirin, acetylsalicylic acid]?
Answer: ASA concentration at which lamellar spacing and membrane thickness of lo and ld domains coincide (RBC membranes; 0-3 mM ASA series): 2.5 mM; effect on lamellar spacing and membrane thickness of ld lipid domains (RBC membranes; 1-3 mM ASA): not affected; overall lamellar spacing of the RBC membranes (RBC membranes; ASA concentration of 2.5 mM): 53.4 Å; overall membrane thickness (RBC membranes; ASA concentration of 2.5 mM): 41.8 Å; domain preference of the interaction with RBC membranes (RBC membranes; electron densities of lo and ld domains, 1 mM ASA): preferably interacts with lo regions; effect on lipid spacing in the ld domain (RBC membranes; in presence of aspirin): unchanged; distance between lipids alo in lo domains (RBC membranes; in presence of aspirin, increase from 4.69 Å in pure RBC membranes): 4.85 Å; lipid tail area in lo domains (RBC membranes; in presence of aspirin, increase from 19.04 Å^2 in pure RBC membranes): 20.37 Å^2; effect on lipid domain sizes (RBC membranes; increasing ASA content): approximately independent of aspirin concentration; effect on peptide domain size (RBC membranes; increasing ASA content): slight increase in peptide domain size; location of aspirin in the membrane (|z| of increased electron density, head group region) (RBC membranes; lo lipid domains, RBC membranes + 1 mM ASA vs pure RBC membrane): ~22.8 Å

Question: Which “membrane damage: reduction and oxidation peak currents” value [1] does the source give for `CCCCCCCCCCCCOS(=O)(=O)[O-].[Na+]` [SDS, sodium dodecyl sulfate] here?
Answer: increases in the reduction and oxidation peak currents
